Test results as given in patent US11827917B1, “Methods for the conversion of fermentable sugars to ethanol” (Colorado State University Research Foundation, priority 2020, dated 2023).
“Also recorded” adds a separate entry of the source. Marks after values point to notes of the source that are not given here.

Tests used:
Assay type in all cases: cell-based, Saccharomyces cerevisiae
S. cerevisiae JAY 270 [1] = assay: Screening of growth in 24-well plates on YPDA; conditions: for Cell growth score (colony size): YPDA, 30° C., 24 h
Protocol: Procedure: An inoculum culture of S. cerevisiae JAY 270 was grown in 100 mL of yeast extract-peptone-dextrose (YPD) medium (10 g/L yeast extract, 20 g/L peptone, 20 g/L glucose) in 200-mL serum bottles overnight in a shaker at 30° C. and 200 rpm. The cells were collected by centrifuging 10 min at 4000×g and 4° C. To wash off the medium residue, the cell pellet was resuspended in 30 mL of sterile 0.8% (w/v) NaCl solution and centrifuged at 4000×g for 10 min. The cell pellet was washed twice. Finally, the cell pellet was resuspended and diluted in 0.8% (w/v) NaCl to achieve cell concentrations of OD600=0.02 and 0.2.
The eight compounds were added in YPDA separately at 0.03%, 0.05%, 0.1%, and 0.2% (w/v). The standard control treatment contained only YPDA medium without addition of these compounds. Since the TrpOH and TyrOH stock solutions were dissolved in DMSO, the controls for those tests were YPDA with the same concentration of DMSO. A 3-mL aliquot of YPDA medium with or without the test compounds were loaded in each well of the 24-well plate.
Ten μL of the prepared S. cerevisiae JAY 270 cell suspension at OD600=0.02 or 0.2 was loaded onto the YPDA medium in each well of the 24-well plates. Then the plates were sealed with Parafilm and incubated at 30° C. for 24 h. There were four biological replicates for each treatment.
Yeast cell growth was evaluated by visual observation of the colony size in the well and scored as 0, +, ++, and +++.

S. cerevisiae JAY 270 [2] = assay: Growth test in liquid YNB medium, low/high nitrogen, serum bottles; conditions: 40, 200, 1000 mg/L; low and high nitrogen media
Protocol: A second set of tests was performed in a defined liquid medium, Yeast Nitrogen Base with Glucose (YNB), containing (NH4)2SO4 at either low (1 mM) or high (10 mM) nitrogen content. […] All serum bottles were incubated in a shaker at 30° C. and 150 RPM. Each treatment was performed in biological duplicate. Samples were collected at 0, 5, and 10 hours.

S. cerevisiae ATCC 26603 = assay: Serum-bottle cultivation in YPD, different yeast strains; conditions: 0.2%
S. cerevisiae JAY 240 = assay: as above; conditions: 0.2%
S. cerevisiae JAY 241 = assay: as above; conditions: 0.2%
[3] = S. cerevisiae ATCC 26603, YPD (Table 9B)
[4] = S. cerevisiae JAY 240, YPD (Table 9B)
[5] = S. cerevisiae JAY 241, YPD (Table 9B)

OCCc1ccccc1 [PheOH, 2-phenylethanol]
Cell growth score (colony size) (S. cerevisiae JAY 270 [1]; 0.03% (w/v)): +++
Cell growth score (colony size) (S. cerevisiae JAY 270 [1]; 0.05% (w/v)): +++
Cell growth score (colony size) (S. cerevisiae JAY 270 [1]; 0.10% (w/v)): ++
Cell growth score (colony size) (S. cerevisiae JAY 270 [1]; 0.20% (w/v)): +
Concentration at which cell growth was reduced in the plate assay (S. cerevisiae JAY 270 [1]; molar equivalent of the % w/v value): 8.2 mM
Effect on cell growth in the plate assay (words) (S. cerevisiae JAY 270 [1]; tested concentrations, 24-well plates): inhibited growth; also recorded: reduced the growth
Inhibitory effect on yeast cell growth in liquid YNB medium (S. cerevisiae JAY 270 [2]): inhibitory at 1000 mg/L in both media, but not at 40 and 200 mg/L
Biomass Yield (S. cerevisiae ATCC 26603; S. cerevisiae ATCC 26603): 0.052 ± 0.001 g/g
Biomass yield % change vs. control (S. cerevisiae ATCC 26603; S. cerevisiae ATCC 26603): −22* %
EtOH yield (S. cerevisiae ATCC 26603; S. cerevisiae ATCC 26603): 0.453 ± 0.006 g/g
EtOH yield % change vs. control (S. cerevisiae ATCC 26603; S. cerevisiae ATCC 26603): +1.2%
Glycerol yield (S. cerevisiae ATCC 26603; S. cerevisiae ATCC 26603): 0.054 ± 0.001 g/g
Glycerol yield % change vs. control (S. cerevisiae ATCC 26603; S. cerevisiae ATCC 26603): −25* %
DCW (S. cerevisiae ATCC 26603; S. cerevisiae ATCC 26603, YPD): 1.40 mg
DCW Δ vs. ref (S. cerevisiae ATCC 26603; S. cerevisiae ATCC 26603, YPD): 76.4%
OD600 (S. cerevisiae ATCC 26603; S. cerevisiae ATCC 26603, YPD): 1.27
OD600 Δ vs. ref (S. cerevisiae ATCC 26603; S. cerevisiae ATCC 26603, YPD): 85.6%
Biomass Yield (S. cerevisiae ATCC 26603; [3]): 0.052 + 0.001 g/g
Biomass yield Δ vs. ref (S. cerevisiae ATCC 26603; [3]): −22.3%
Ethanol yield (S. cerevisiae ATCC 26603; [3]): 0.453 ± 0.006 g/g
Ethanol yield Δ vs. ref (S. cerevisiae ATCC 26603; [3]): 1.2%
Glycerol yield (S. cerevisiae ATCC 26603; [3]): 0.054 ± 0.001 g/g
Glycerol yield Δ vs. ref (S. cerevisiae ATCC 26603; [3]): −25.07%
Biomass Yield (S. cerevisiae JAY 240; S. cerevisiae JAY 240): 0.060 ± 0.000 g/g
Biomass yield % change vs. control (S. cerevisiae JAY 240; S. cerevisiae JAY 240): −19* %
EtOH yield (S. cerevisiae JAY 240; S. cerevisiae JAY 240): 0.448 ± 0.018 g/g
EtOH yield % change vs. control (S. cerevisiae JAY 240; S. cerevisiae JAY 240): +8.2* %
Glycerol yield (S. cerevisiae JAY 240; S. cerevisiae JAY 240): 0.038 ± 0.002 g/g
Glycerol yield % change vs. control (S. cerevisiae JAY 240; S. cerevisiae JAY 240): +2.2%
DCW (S. cerevisiae JAY 240; S. cerevisiae JAY 240, YPD): 2.20 mg
DCW Δ vs. ref (S. cerevisiae JAY 240; S. cerevisiae JAY 240, YPD): 78.6%
OD600 (S. cerevisiae JAY 240; S. cerevisiae JAY 240, YPD): 1.89
OD600 Δ vs. ref (S. cerevisiae JAY 240; S. cerevisiae JAY 240, YPD): 72.2%
Biomass Yield (S. cerevisiae JAY 240; [4]): 0.060 + 0.000 g/g
Biomass yield Δ vs. ref (S. cerevisiae JAY 240; [4]): −19.1%
Ethanol yield (S. cerevisiae JAY 240; [4]): 0.448 ± 0.018 g/g
Ethanol yield Δ vs. ref (S. cerevisiae JAY 240; [4]): 8.2%
Glycerol yield (S. cerevisiae JAY 240; [4]): 0.038 ± 0.002 g/g
Glycerol yield Δ vs. ref (S. cerevisiae JAY 240; [4]): 2.20%
Biomass Yield (S. cerevisiae JAY 241; S. cerevisiae JAY 241): 0.042 ± 0.001 g/g
Biomass yield % change vs. control (S. cerevisiae JAY 241; S. cerevisiae JAY 241): −28* %
EtOH yield (S. cerevisiae JAY 241; S. cerevisiae JAY 241): 0.399 ± 0.003 g/g
Glycerol yield (S. cerevisiae JAY 241; S. cerevisiae JAY 241): 0.037 ± 0.002 g/g
Glycerol yield % change vs. control (S. cerevisiae JAY 241; S. cerevisiae JAY 241): −31* %
DCW (S. cerevisiae JAY 241; S. cerevisiae JAY 241, YPD): 2.10 mg
DCW Δ vs. ref (S. cerevisiae JAY 241; S. cerevisiae JAY 241, YPD): 80.8%
OD600 (S. cerevisiae JAY 241; S. cerevisiae JAY 241, YPD): 1.45
OD600 Δ vs. ref (S. cerevisiae JAY 241; S. cerevisiae JAY 241, YPD): 69.9%
Biomass Yield (S. cerevisiae JAY 241; [5]): 0.042 + 0.001 g/g
Biomass yield Δ vs. ref (S. cerevisiae JAY 241; [5]): −27.9%
Ethanol yield (S. cerevisiae JAY 241; [5]): 0.399 ± 0.003 g/g
Ethanol yield Δ vs. ref (S. cerevisiae JAY 241; [5]): 0.4%
Glycerol yield (S. cerevisiae JAY 241; [5]): 0.037 ± 0.002 g/g
Glycerol yield Δ vs. ref (S. cerevisiae JAY 241; [5]): −31.00%
